Laboratory results from patent EP4534147A1, “STING ANTAGONIST COMPOUNDS” (Sulis Therapeutics ApS, priority 2023, dated 2025).
pIC50: −log10 of the molar value.

Assays:
[1] = biological target: T1, STING (Homo sapiens, UniProt Q86WV6); test: Human FB STING antagonist assay (IFN-a/b release); type: cell-based; settings: Human skin fibroblasts, 2h pre-treatment, 300 nM GSK STING agonist (CAS number: 2138299-34-8) for 20 h, release of IFN-a/b by HEK-Blue IFN-α/β bioassay
T1 construct: endogenous in cells; host or cells: human skin fibroblasts
T1 sequence (Q86WV6 whole entry): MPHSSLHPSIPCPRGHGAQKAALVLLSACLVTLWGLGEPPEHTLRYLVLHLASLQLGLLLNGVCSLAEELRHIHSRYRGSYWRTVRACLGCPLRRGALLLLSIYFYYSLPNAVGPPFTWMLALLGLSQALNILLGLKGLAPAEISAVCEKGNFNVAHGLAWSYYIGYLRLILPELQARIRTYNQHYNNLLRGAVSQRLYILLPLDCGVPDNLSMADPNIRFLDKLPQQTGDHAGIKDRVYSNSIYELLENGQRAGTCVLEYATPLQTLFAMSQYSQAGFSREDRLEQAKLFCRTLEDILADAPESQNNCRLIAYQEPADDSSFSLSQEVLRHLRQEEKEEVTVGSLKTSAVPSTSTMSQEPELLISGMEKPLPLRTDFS
Description: STING antagonist activity can be determined by a human fibroblast antagonist assay. For this, human skin fibroblasts are pre-treated for 2h with a serial dilution of the compound, and are then stimulated for 20 hours with 300 nM STING agonist (e.g. from GSK, CAS number: 2138299-34-8). Supernatants are then harvested and assessed for IFN-a/b release, which indicates STING activation. IFN-a/b concentration in the supernatant is determined, e.g. using an IFN-α/β bioassay. IC50 values are calculated using a non-linear regression fitting, variable slope (4 parameters).
Human skin fibroblasts were pre-treated for 2h with a serial dilution of test compound followed by stimulation with mock or 300 nM GSK STING agonist (CAS number: 2138299-34-8). Supernatants were harvested after 20 h of STING agonist stimulation. Release of IFN-a/b was determined using HEK-Blue IFN-α/β bioassay (Invivogen). Cellular viability was assessed using Alamar Blue HS assay. IC50 values were estimated using a non-linear regression fitting, variable slope (4 parameters) in GraphPad Prism 9.3.1.

[2] = biological target: C-terminal domain (CTD) of human STING (Homo sapiens, UniProt Q86WV6); test: STING binding FP assay II (as FP assay I, lower STING concentration); set-up: recombinant human STING protein (155-379); settings: 7 nM STING in buffer A, 4 nM fluorescein-labelled STING ligand (Probe 1)
C-terminal domain (CTD) of human STING, sequence (Q86WV6 155-379): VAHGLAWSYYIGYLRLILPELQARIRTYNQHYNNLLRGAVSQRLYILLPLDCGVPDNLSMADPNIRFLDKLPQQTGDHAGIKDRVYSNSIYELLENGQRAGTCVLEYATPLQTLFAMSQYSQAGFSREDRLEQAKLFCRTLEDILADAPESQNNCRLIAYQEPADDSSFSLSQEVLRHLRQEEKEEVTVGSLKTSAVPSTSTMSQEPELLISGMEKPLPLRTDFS
Description: The interaction between molecules and the C-terminal domain (CTD) of human STING was evaluated using a competition binding assay. In this assay, recombinant human STING protein (155-379) and a STING binding fluorescent probe were employed. Upon binding of the probe to STING, the rotation of the fluorescent probe is slowed due to the larger molecular size of the protein-bound complex. As a result, emitted light retains its plane of polarization, leading to an increase in fluorescence polarization. Molecules competing for the probe binding site displace the probe, which leads to rapid randomization of the polarization plane of the emitted light and a subsequent decrease in measured fluorescence polarization signal. Change in polarization was measured, allowing a comparative evaluation of the binding affinities of different compounds to the target protein.
The assay was performed in 96-well plates (ThermoFisher, cat.# 237108) containing 100 µl : 10 µL test compound in 10% DMSO and buffer A (150 mM NaCl, 50 mM HEPES pH 7.5, 1 mM DTT) + 90 µL prepared master mix solution of: 4 nM fluorescein-labelled STING ligand (Probe 1; synthesis described above) in buffer A + 0.055% Tween-20 (v/v) and 35 nM STING in buffer A. Post mixing, plates were agitated at 600 rpm and incubated for 20 min at room temperature. Subsequent measurements of the fluorescence polarization signal were made on a BioTek Synergy-H1 plate reader, using a polarization filter; excitation: 485/20 nm, emission: 528/20 nm) with a gain-setting of 75. IC50 values were determined using a standard non-linear regression four-parameter curve fit in Graphpad Prism.
The procedure for STING binding FP assay II is the same as described for STING binding FP assay I, except for a lower STING concentration. In STING binding FP assay II, a concentration of 7 nM STING in buffer A was used.

CCOC(=O)COC(CCn1c(NC(=O)c2cc(C)nn2CC)nc2cc(C(N)=O)ccc21)CCn1c(NC(=O)c2cc(C)nn2CC)nc2cc(C(N)=O)ccc21 [Example 1, Ethyl {3-[5-carbamoyl-2-(1-ethyl-3-methyl-5-pyrazolylcarbonylamino)-1H-1,3-benzimidazol-1-yl]-1-{2-[5-carbamoyl-2-(1-ethyl-3-methyl-5-pyrazolylcarbonylamino)-1H-1,3-benzimidazol-1-yl]ethyl}propoxy}acetate]
pIC50 [1]: 5.49

CCn1nc(C)cc1C(=O)N=c1n(C)c2cc(C(N)=O)ccc2n1CCC(CCn1c(=NC(=O)c2cc(C)nn2CC)n(C)c2cc(C(N)=O)ccc21)OCC(=O)N1CCN(C(C)=O)CC1 (stereo not drawn) [Example 12, 1-{3-[2-(4-Acetyl-1-piperazinyl)-2-oxoethoxy]-5-{5-carbamoyl-2-[(1-ethyl-3-methyl-5-pyrazolyl)carbonylimino]-3-methyl-2,3-dihydro-1H-1,3-benzimidazol-1-yl}pentyl}-2-[(1-ethyl-3-methyl-5-pyrazolyl)carbonylimino]-3-methyl-2,3-dihydro-1H-1,3-benzimidazole-5-carboxamide]
pIC50 [1]: 5.01 | pIC50 [2]: 8.77

CCn1nc(C)cc1C(=O)N=c1n(C)c2cc(C(N)=O)ccc2n1CCC(CCn1c(=NC(=O)c2cc(C)nn2CC)n(C)c2cc(C(N)=O)ccc21)OCC(=O)N(CCOC)CCOC (stereo not drawn) [Example 13, 1-(3-{[Bis(2-methoxyethyl)carbamoyl]methoxy}-5-{5-carbamoyl-2-[(1-ethyl-3-methyl-5-pyrazolyl)carbonylimino]-3-methyl-2,3-dihydro-1H-1,3-benzimidazol-1-yl}pentyl)-2-[(1-ethyl-3-methyl-5-pyrazolyl)carbonylimino]-3-methyl-2,3-dihydro-1H-1,3-benzimidazole-5-carboxamide]
pIC50 [1]: 5.11 | pIC50 [2]: 8.70

CCn1nc(C)cc1C(=O)N=c1n(C)c2cc(C(N)=O)ccc2n1CCC(CCn1c(=NC(=O)c2cc(C)nn2CC)n(C)c2cc(C(N)=O)ccc21)OCC(=O)N(C(C)C)C(C)C (stereo not drawn) [Example 21, 1-(3-{[Bis(isopropyl)carbamoyl]methoxy}-5-{5-carbamoyl-2-[(1-ethyl-3-methyl-5-pyrazolyl)carbonylimino]-3-methyl-2,3-dihydro-1H-1,3-benzimidazol-1-yl}pentyl)-2-[(1-ethyl-3-methyl-5-pyrazolyl)carbonylimino]-3-methyl-2,3-dihydro-1H-1,3-benzimidazole-5-carboxamide]
pIC50 [2]: 8.32

CCn1nc(C)cc1C(=O)N=c1n(C)c2cc(C(N)=O)ccc2n1CCC(CCn1c(=NC(=O)c2cc(C)nn2CC)n(C)c2cc(C(N)=O)ccc21)OCC(=O)Nc1cc(C)[nH]n1 (stereo not drawn) [Example 22, 1-{3-[(N-5-Methyl-3-pyrazolylcarbamoyl)methoxy]-5-{5-carbamoyl-2-[(1-ethyl-3-methyl-5-pyrazolyl)carbonylimino]-3-methyl-2,3-dihydro-1H-1,3-benzimidazol-1-yl}pentyl}-2-[(1-ethyl-3-methyl-5-pyrazolyl)carbonylimino]-3-methyl-2,3-dihydro-1H-1,3-benzimidazole-5-carboxamide]
pIC50 [1]: 5.22 | pIC50 [2]: 7.89

CCn1nc(C)cc1C(=O)N=c1n(C)c2cc(C(N)=O)ccc2n1CCC(CCn1c(=NC(=O)c2cc(C)nn2CC)n(C)c2cc(C(N)=O)ccc21)OCC(=O)n1nc(N)cc1C (stereo not drawn) [Example 23, 1-{3-[2-(3-Amino-5-methyl-1-pyrazolyl)-2-oxoethoxy]-5-{5-carbamoyl-2-[(1-ethyl-3-methyl-5-pyrazolyl)carbonylimino]-3-methyl-2,3-dihydro-1H-1,3-benzimidazol-1-yl}pentyl}-2-[(1-ethyl-3-methyl-5-pyrazolyl)carbonylimino]-3-methyl-2,3-dihydro-1H-1,3-benzimidazole-5-carboxamide]
pIC50 [2]: 8.20

CCn1nc(C)cc1C(=O)N=c1n(C)c2cc(C(N)=O)ccc2n1CCC(CCn1c(=NC(=O)c2cc(C)nn2CC)n(C)c2cc(C(N)=O)ccc21)OCC(=O)n1nc(C)cc1N (stereo not drawn) [Example 24, 1-{3-[2-(5-Amino-3-methyl-1-pyrazolyl)-2-oxoethoxy]-5-{5-carbamoyl-2-[(1-ethyl-3-methyl-5-pyrazolyl)carbonylimino]-3-methyl-2,3-dihydro-1H-1,3-benzimidazol-1-yl}pentyl}-2-[(1-ethyl-3-methyl-5-pyrazolyl)carbonylimino]-3-methyl-2,3-dihydro-1H-1,3-benzimidazole-5-carboxamide]
pIC50 [2]: 8.32

CCn1nc(C)cc1C(=O)N=c1n(C)c2cc(C(N)=O)ccc2n1CCC(CCn1c(=NC(=O)c2cc(C)nn2CC)n(C)c2cc(C(N)=O)ccc21)OCC(=O)N1CCC[C@H]1c1ccccc1 (stereo partly drawn) [Example 25, 1-(3-{2-[(S)-2-Phenyl-1-pyrrolidinyl]-2-oxoethoxy}-5-{5-carbamoyl-2-[(1-ethyl-3-methyl-5-pyrazolyl)carbonylimino]-3-methyl-2,3-dihydro-1H-1,3-benzimidazol-1-yl}pentyl)-2-[(1-ethyl-3-methyl-5-pyrazolyl)carbonylimino]-3-methyl-2,3-dihydro-1H-1,3-benzimidazole-5-carboxamide]
pIC50 [2]: 8.34

CCn1nc(C)cc1C(=O)N=c1n(C)c2cc(C(N)=O)ccc2n1CCC(CCn1c(=NC(=O)c2cc(C)nn2CC)n(C)c2cc(C(N)=O)ccc21)OCC(=O)N1CCC[C@H]1C(=O)N1CCc2cc(OC)ccc2C1 (stereo partly drawn) [Example 26, 1-[3-(2-{(S)-2-[(6-Methoxy-1,2,3,4-tetrahydro-2-isoquinolyl)carbonyl]-1-pyrrolidinyl}-2-oxoethoxy)-5-{5-carbamoyl-2-[(1-ethyl-3-methyl-5-pyrazolyl)carbonylimino]-3-methyl-2,3-dihydro-1H-1,3-benzimidazol-1-yl}pentyl]-2-[(1-ethyl-3-methyl-5-pyrazolyl)carbonylimino]-3-methyl-2,3-dihydro-1H-1,3-benzimidazole-5-carboxamide]
pIC50 [1]: 5.85 | pIC50 [2]: 8.46

CCn1nc(C)cc1C(=O)N=c1n(C)c2cc(C(N)=O)ccc2n1CCC(CCn1c(=NC(=O)c2cc(C)nn2CC)n(C)c2cc(C(N)=O)ccc21)OCC(=O)N1CCC[C@@H]1c1cc(F)ccc1F (stereo partly drawn) [Example 27, 1-(3-{2-[(R)-2-(2,5-Difluorophenyl)-1-pyrrolidinyl]-2-oxoethoxy}-5-{5-carbamoyl-2-[(1-ethyl-3-methyl-5-pyrazolyl)carbonylimino]-3-methyl-2,3-dihydro-1H-1,3-benzimidazol-1-yl}pentyl)-2-[(1-ethyl-3-methyl-5-pyrazolyl)carbonylimino]-3-methyl-2,3-dihydro-1H-1,3-benzimidazole-5-carboxamide]
pIC50 [2]: 8.43

CCn1nc(C)cc1C(=O)N=c1n(C)c2cc(C(N)=O)ccc2n1CCC(CCn1c(=NC(=O)c2cc(C)nn2CC)n(C)c2cc(C(N)=O)ccc21)OCC(=O)N1CCC[C@H]1c1nnn[nH]1 (stereo partly drawn) [Example 28, 1-(3-{2-[(S)-2-(1H-Tetrazol-5-yl)-1-pyrrolidinyl]-2-oxoethoxy}-5-{5-carbamoyl-2-[(1-ethyl-3-methyl-5-pyrazolyl)carbonylimino]-3-methyl-2,3-dihydro-1H-1,3-benzimidazol-1-yl}pentyl)-2-[(1-ethyl-3-methyl-5-pyrazolyl)carbonylimino]-3-methyl-2,3-dihydro-1H-1,3-benzimidazole-5-carboxamide]
pIC50 [1]: 5.41 | pIC50 [2]: 8.08

CCNC(=O)COC(CCn1c(=NC(=O)c2cc(C)nn2CC)n(C)c2cc(C(N)=O)ccc21)CCn1c(=NC(=O)c2cc(C)nn2CC)n(C)c2cc(C(N)=O)ccc21 (stereo not drawn) [Example 29, 1-{3-[(N-Ethylcarbamoyl)methoxy]-5-{5-carbamoyl-2-[(1-ethyl-3-methyl-5-pyrazolyl)carbonylimino]-3-methyl-2,3-dihydro-1H-1,3-benzimidazol-1-yl}pentyl}-2-[(1-ethyl-3-methyl-5-pyrazolyl)carbonylimino]-3-methyl-2,3-dihydro-1H-1,3-benzimidazole-5-carboxamide]
pIC50 [1]: 5.28 | pIC50 [2]: 8.15
